For test [1], the species on record is Rattus norvegicus. The test can be described thus: Inhibition of steroid 5-alpha-reductase activity in Sprague-Dawley rat liver microsomes at 113 uM after 10 mins. The note with it: Microsome. In general terms: Liver microsomes are vesicles of endoplasmic reticulum, rich in cytochrome P450 enzymes.
Test [2] has as its target T1, Androgen receptor (Homo sapiens) (UniProt P10275).
T1 sequence (whole entry): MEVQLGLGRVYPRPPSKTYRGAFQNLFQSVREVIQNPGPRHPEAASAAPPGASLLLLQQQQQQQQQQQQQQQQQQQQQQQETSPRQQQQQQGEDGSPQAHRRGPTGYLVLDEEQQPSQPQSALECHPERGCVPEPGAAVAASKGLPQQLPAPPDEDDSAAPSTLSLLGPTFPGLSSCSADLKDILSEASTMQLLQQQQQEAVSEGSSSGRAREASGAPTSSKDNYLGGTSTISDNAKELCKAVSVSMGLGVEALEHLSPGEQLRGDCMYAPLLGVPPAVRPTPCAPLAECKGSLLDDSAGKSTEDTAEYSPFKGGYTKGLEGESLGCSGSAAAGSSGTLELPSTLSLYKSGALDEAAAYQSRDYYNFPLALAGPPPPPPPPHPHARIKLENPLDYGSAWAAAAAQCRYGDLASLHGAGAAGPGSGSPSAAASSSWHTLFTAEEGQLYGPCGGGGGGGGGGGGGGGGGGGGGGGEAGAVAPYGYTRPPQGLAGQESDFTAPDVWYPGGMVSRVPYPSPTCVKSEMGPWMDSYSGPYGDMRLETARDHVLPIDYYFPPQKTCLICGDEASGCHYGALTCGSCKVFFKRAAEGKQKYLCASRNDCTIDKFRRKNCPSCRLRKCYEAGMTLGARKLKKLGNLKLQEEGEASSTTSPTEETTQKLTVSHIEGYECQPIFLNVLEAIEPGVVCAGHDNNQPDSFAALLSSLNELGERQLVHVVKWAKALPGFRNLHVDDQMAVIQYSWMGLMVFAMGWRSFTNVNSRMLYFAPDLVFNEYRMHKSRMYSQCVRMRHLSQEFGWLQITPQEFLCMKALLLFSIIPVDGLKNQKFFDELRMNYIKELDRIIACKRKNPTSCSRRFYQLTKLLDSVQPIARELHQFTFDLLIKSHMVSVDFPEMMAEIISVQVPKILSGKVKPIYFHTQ
The test can be described thus: Displacement of dihydrotestosterone from human recombinant AR ligand binding domain at 15 uM by fluorescence polarization method. (In general: Fluorescence polarisation rises when a labelled molecule tumbles more slowly, as on binding a larger partner.)

Test [3] concerns LNCaP. Description: Growth inhibition of human LNCaP cells after 3 days. It is filed as functional, cell-based.
For test [4], the system named is LNCaP. The test can be described thus: Growth inhibition of human LNCaP cells in presence of testosterone after 3 days. It is filed as functional, cell-based.
In test [5] the test system is LNCaP. Description: Growth inhibition of human LNCaP cells in presence of dihydrotestosterone after 3 days. Type of test: functional, cell-based.
Test [6] relates to Rattus norvegicus. The test can be described thus: Inhibition of testosterone induced ventral prostate growth in Sprague-Dawley rat at 0.1 mg/kg/day, po after 7 days. Type of test: functional. Conditions: Prostate gland, 168 h.
In test [7] the test system is Rattus norvegicus. Description: Inhibition of testosterone induced ventral prostate growth in Sprague-Dawley rat at 0.001 mg/kg/day, po after 7 days. It is filed as functional, Prostate gland. Also on record: scale not given: the % may be the effect or the level left.
The nature of test [8]: Inhibition of steroid 5-alpha-reductase activity in Sprague-Dawley rat liver microsomes after 10 mins. On the set-up: species or system Microsome.

The text below walks through data of ChEMBL document CHEMBL1139983, “The anti-androgen effect of ganoderol B isolated from the fruiting body of Ganoderma lucidum” (Bioorg Med Chem, 2007).

Activity calls are given as the source filed them. The calls are words filed in the database; no cut-off is given here.

One may read the inhibition as the percentage by which the read-out fell short of the control. Broadly, the inhibition in vivo is the change of the read-out against control, counted positive when it falls. A word on the IC50: it is the concentration that gives 50% inhibition.

In turn, `C/C(=C\CC[C@@H](C)[C@H]1CC[C@@]2(C)C3=CC[C@H]4C(C)(C)[C@@H](O)CC[C@]4(C)C3=CC[C@]12C)CO` [GANODEROL B] showed an inhibition in the test filed under Rattus norvegicus [1] of 37%. Also, the Activity is 50% in test [2], “Dose-dependent effect” with LNCaP [4], “Dose-dependent effect” in the test on LNCaP [5] and 31% in the test on Rattus norvegicus [7]. For the same molecule, the outcome in the test with LNCaP [3] was inactive. This molecule yielded an inhibition in vivo at 0.1 mg/kg/day in the test on Rattus norvegicus [6] of 49%.
In turn, `CC(C)(C)NC(=O)[C@H]1CC[C@H]2[C@@H]3CC[C@H]4NC(=O)C=C[C@]4(C)[C@H]3CC[C@]12C` [FINASTERIDE] came in with a 50% inhibitory concentration (IC50) in test [8] of 730 nM.
